Data on four molecules can be found in patent publication US20110076261A1, “Antifungal Drug Delivery System” (priority 2007, published 2011).

By pKa is commonly meant the negative logarithm of the acid dissociation constant.

The conditions of series [1]: at 25° C.; cited from earlier work.
The conditions of series [2]: cited from earlier work.
On series [3], the source says: Accordingly, when looking at a particular acid, the percent of ionization of that acid can be determined by the following formula: […]

Read-outs that look alike come from different tables or passages of the source.

Take `O=C(O)C(O)c1ccccc1` (centres unmarked) [Mandelic, mandelic acid]: the pKa in series [1] is recorded as 3.85.
For `O=C[C@H](O)[C@@H](O)[C@H](O)[C@H](O)C(=O)O` [Glucoronic, glucuronic acid], the pKa in series [1] was 3.28.
For `O=C(O)c1ccccc1O` [Salicylic, salicylic acid], the “normal pH in water” value in series [2] was 2.2. Besides, the percent ionized entry in series [3] (in water, pH 2.2) is recorded as “approximately 9%”; in series [3] (pH raised to 5), “approximately 99%”. The results for the “pH−pKa value” in series [3] (pH 2.2) and in series [3] (pH 5) were −0.77 and 2.03, respectively.
For the molecule `NC(N)=O` [Urea], in series [1], the pKa is recorded as 0.10.
